The target of one assay is T1, 5-lipoxygenase (LO) (Homo sapiens, UniProt P09917).
T1 construct: Aliquots of heparinized human whole blood (1 ml) from healthy donors; endogenous in cells; host or cells: heparinized human whole blood from healthy donors
T1 sequence (P09917 1-674): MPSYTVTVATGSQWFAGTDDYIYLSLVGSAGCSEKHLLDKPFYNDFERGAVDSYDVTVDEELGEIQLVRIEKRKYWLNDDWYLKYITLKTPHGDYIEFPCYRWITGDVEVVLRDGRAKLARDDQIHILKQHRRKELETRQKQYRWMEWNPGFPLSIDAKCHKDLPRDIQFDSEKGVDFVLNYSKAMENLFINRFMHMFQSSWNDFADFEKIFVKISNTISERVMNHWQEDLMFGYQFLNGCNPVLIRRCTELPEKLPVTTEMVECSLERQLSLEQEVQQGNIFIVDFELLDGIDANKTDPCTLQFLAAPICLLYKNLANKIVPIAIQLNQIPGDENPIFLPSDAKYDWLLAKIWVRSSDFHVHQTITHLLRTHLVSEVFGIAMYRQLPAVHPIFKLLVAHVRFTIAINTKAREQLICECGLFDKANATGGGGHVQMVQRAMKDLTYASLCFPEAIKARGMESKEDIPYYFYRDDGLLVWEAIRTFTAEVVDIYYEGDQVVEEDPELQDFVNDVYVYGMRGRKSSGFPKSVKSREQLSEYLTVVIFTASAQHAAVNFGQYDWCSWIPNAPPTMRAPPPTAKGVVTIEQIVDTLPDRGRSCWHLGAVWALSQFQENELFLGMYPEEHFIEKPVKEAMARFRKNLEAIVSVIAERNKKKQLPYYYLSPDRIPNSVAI
The assay can be described thus: In vitro assay using heparinized human whole blood (HWB). The format is cell-based. As to conditions: calcium ionophore stimulated, 10 min preincubation at 37° C., read-out: IC50, inhibition of 5-lipoxygenase metabolism of arachidonic acid. The method, then:
1) In vitro assay using heparinized human whole blood (HWB)
Aliquots of heparinized human whole blood (1 ml) from healthy donors were preincubated with drugs dissolved in dimethyl sulfoxide (final concentration, 0.1%) for 10 min at 37° C., then calcium ionophore […] (60 μM) and Heparapid (2.5%, Sekisui Chemical Co. LTD., Japan) were added and incubations were continued for further 30 min. Reactions were terminated by rapid cooling in an ice bath. Blood-clots induced by Heparapid were removed by centrifugation. Acetonitrile (ACN, 1.5 ml) and PGB2 (200 ng, as internal standard) were added to supernatants. Samples were mixed by Voltex mixer and precipitated proteins were removed by centrifugation. Supernatants were diluted to 15% ACN with water and were loaded onto prewashed Sep-Pak C18 cartridge (Waters Associates, Milford, Miss., USA) and arachidonate metabolites were eluted with 4 ml of 70% methanol. Methanolic extract was evaporated and the residue was then reconstituted in 250 μl of 67% ACN.
ACN reconstituents (100 μl) were injected onto a reversed phase C18 column (Wakosil SC18, 4.6×150 mm, Wako Pure Chemical Industries LTD, Japan). Column temperature was 40° C. HPLC analysis was performed by Hewlett Packard model 1090M HPLC system. The chromatographic was achieved by gradient elution using two different mobile phase ( mobile phase A consisted of 10% ACN, 0.1% trifluoroacetic acid and 0.05% triethylamine; mobile phase B consisted of 80% ACN, 0.1% trifluoroacetic acid and 0.05% triethylamine). Each mobile phase was continuously sparged with helium. The HPLC gradient was programmed as follows (where A+B=100): from 0 to 9.7 min, a linear gradient from 35 to 100% of […] with flow rate of 1 ml/min. Peaks of eluting products were quantitated by UV absorbance (LTB4 and PGB2 at 275 nm; HHT and 5-HETE at 235 nm, respectively) and were corrected by PGB2 recovery. Linear regression was used to estimate IC50 values. […]

Assay [1] has as its system platelet activating factor (PAF) induced lethality. Put plainly: PAF induced lethality in mice, test compound administered orally. The format is in vivo, ICR mice (male). The conditions noted are these: Mus musculus, oral administration 45 min prior to PAF injection (12 μg/Kg i.v.), mortality 1 hr after PAF. The method, then: 2) In vivo system measuring effects of test compound administered orally against platelet activating factor (PAF) induced lethality in mice
The in vivo potency after oral administration of test compounds to ICR mice (male) was determined using the PAF lethality assay in a similar manner as that described in the following articles: J. M. Young, P. J. Maloney, S. N. Jubb, and J. S. Clark, Prostaglandins, 30, 545 (1985); M. Criscuoli and A. Subissi, Br. J. Pharmac., 90, 203 (1987); and H. Tsunoda, S. Abe, Y. Sakuma, S. Katayama and K. Katayama, Prostaglandins Leukotrienes and Essential Fatty Acids, 39, 291 (1990). PAF was dissolved at a concentration of 1.2 μg/ml in 0.05 mg/ml propranolol-saline containing 0.25% bovine serum albumin (BSA) and injected intravenously into mice at a dose of 12 μg/Kg. Mortality was determined 1 hr after PAF injection. To investigate the effect of 5-LO inhibitors, compounds were dissolved in 5% tween 80, 5% EtOH-saline and administered orally (0.1 ml/10 g) 45 min prior to PAF injection. Linear regression was used to estimate ED50 values.

Broadly, the IC50 is the midpoint of a concentration-inhibition curve. As usually defined, the ED50 is the dose that gives a 50% effect, or the effect in half of the subjects. Low values mean an effect at a small dose, high ones a need for a large dose.

Take `NC(=O)N(O)C1C=C(c2cccc(Oc3ccccc3)c2)CC1` (single isomer, unassigned; (+)) [Example 2, (+)-N-[3-(3-Phenoxyphenyl)-2-cyclopenten-1-yl]-N-hydroxyurea]: the IC50 at 5-lipoxygenase (LO) was roughly 500 nM. Moreover, the 50% effective dose (ED50) in assay [1] lay in the range of 1 to 10 mg/kg.
For `NC(=O)N(O)C1C=C(c2cccc(Oc3ccc(Cl)cc3)c2)CC1` (single isomer, unassigned; (+)) [Example 3, (+)-N-[3-[3-(4-Chlorophenoxy)phenyl]-2-cyclopenten-1-yl]-N-hydroxyurea] the same measures were roughly 500 nM and 1 to 10 mg/kg.
For `NC(=O)N(O)C1C=C(c2cccc(Oc3ccc(F)cc3)c2)CC1` (single isomer, unassigned; (+)) [Example 1, (+)-N-[3-[3-(4-Fluorophenoxy)phenyl]-2-cyclopenten-1-yl]-N-hydroxyurea] the same measures were roughly 500 nM and 1 to 10 mg/kg.

For the origin of these results see patent US5792882A, “Phenoxyphenyl cyclopentenyl hydroxyureas” (Pfizer Inc., priority 1993, dated 1998).
